Experiments:
[1] = SABRE polarization build-up and T1 relaxation dynamics in SABRE solvents; assay type: physicochemical; details: for 13C T1 decay / polarization build-up Tb: 0.4 μT
Description: CD3OD is widely used as the SABRE-reaction-hosting solvent because it provides convenient means of attaining high-field NMR spectrometer lock. However, non-deuterated polarization media may be preferred for biomedical applications. For this reason, systematic relaxation dynamics studies were performed comparing CD3OD, CH3OH, and C2H5OH for SABRE-SHEATH [1-^13C]pyruvate hyperpolarization, investigating relevant parameters for these solvents and for fixed concentrations of pyruvate, SABRE catalyst, and DMSO (30 mM, 6 mM, and 40 mM, respectively). However, the ethanol sample was prepared with only 6 mM pyruvate and 10% H2O due to limited solubility. The optimal Br was similar in all investigated samples (≈0.4 μT, FIG. 4A). […] (FIG. 4B). Thus, all the experiments described below were performed using these optimized Br and Tr parameters.
The polarization build-up (Tb) and decay (T1) at 0.4 μT were similar: Tb=13.7±0.6 s versus 19.3±0.6 s; and T1=26.0±0.4 s versus 29.1±0.8 s, respectively (FIGS. 4C, 4E). P13C values were also similar; in one representative example of polarization build-up, P13C was 7.8±0.1% vs. 8.5±0.1% for CH3OH and CD3OD media, respectively, FIG. 4D. […] For ethanol, 1.4-fold lower P13C values were obtained in this mixture compared to CH3OH and CD3OD, which is rationalized by a more efficient relaxation at the SABRE-SHEATH field, FIG. 4E.
Data fitting and error propagation for relaxation and polarization build-up data presented in FIGS. 4A-4I: Data in FIGS. 4C, 4F, 4H was fitted using mono-exponential functions (solid lines) and extracted values with error of polarization build-up or relaxation are presented in bar plots (FIGS. 4D, 4E, 4G, 4I).

[2] = Lifetime (13C T1) of polarization in precipitated and aqueous samples; assay type: physicochemical; details: for T1 in the aqueous phase after Re-D SABRE: N=2
Description: To investigate the impact of precipitate relaxation in variable magnetic fields during the dissolution process, the Re-D SABRE experiment was repeated, omitting the addition of water after precipitation (i.e., the decay of ^13C HP signal in the dissolved phase of the precipitated samples was measured). […] For (iii), P13C was still much lower compared to the sample that rested at the 1.4 T magnet (setup iv), i.e., P13C=0.08±0.02% and P13C=3.4±0.9%, respectively—this signal is entirely derived from the remaining dissolved pyruvate in solution (2.3±0.6 mM in the 500 μL sample of EtAc and CH3OH, FIG. 17) not from the precipitated micro-crystalline phase. […] This observation is important because it means the Re-D SABRE process can be successfully performed at storage fields as low as 0.3 T. The rapid ^13C T1 of HP [1-^13C]pyruvate in the EtAc fraction at Earth's field, estimated to be <1.3 s, may be caused by the high catalyst: substrate ratio in the EtAc.
HP signals from the sample before or after re-dissolution were measured as a function of an additional delay td (ranging from 0 to 23 s; t=tprec+td), during which P13C was allowed to decay. At the end of td, the signal was detected either immediately (green circles, FIG. 6D, sampling the decay rate of the residual dissolved-phase pyruvate) or after the dissolution with D2O (squares, FIG. 6D, sampling the decay rate of the entire pyruvate (precipitated and dissolved) pool). Assuming a mono-exponential decay, the apparent ^13C T1 was 7.0±0.4 s or 5.3±0.2 s, respectively. […] In sharp contrast, T1 values in the aqueous phase measured after the Re-D SABRE process were 41.6±0.3 s in H2O and 102±1.3 s in D2O, FIG. 6E, using a series of pulse-detect NMR experiments with low flip angle of 9° (N=2).

[3] = Precipitation and syringe/cotton filtering of HP pyruvate at 10 mT; assay type: physicochemical; details: 4.5 mL EtAc, filter at 10 mT, 1 mL H2O, 90-100 s procedure, repeated three times
Description: As described above, filtering of non-hyperpolarized pyruvate from the precipitated solutions was tested using in-line syringe filters (FIGS. 9A-9C), and the obtained solutions of supernatant and dissolved microcrystals were analyzed with high resolution NMR. Cotton filters were also used as a performance metric for the syringe filters. Each sample was SABRE-SHEATH-polarized as described previously for three times to quantify the mean base-line hyperpolarization before precipitation (for this batch of samples, P13C=10±1% in CH3OH). Because a short lifetime of ^13C magnetization was expected at ultralow field, the precipitation procedure was performed at an elevated field of 10 mT (see setup described in section 5). At this field, proton and ^13C Zeeman levels are separated by >350 kHz, i.e., an order of magnitude greater than the dipolar spin-spin couplings present in the solid state. To this end, after the hyperpolarization procedure was completed, the sample was rapidly removed from the 0.30 μT field, depressurized, and filled into a 10-mL plastic syringe held at a 10 mT field mounted to a Luer-locked filter. After depressurization (˜10-15 s after hyperpolarization) 4.5 mL EtAc was added, the solution was stirred manually, and the filtration was started, taking a total of about 1 min following hyperpolarization. […]

[4] = 30 mM pyruvate, prior SABRE-SHEATH work (background); cited from earlier work

SMILES: CC(=O)[13C](=O)O [[1-^13C]pyruvate]
- 13C T1 decay ([1]; 30 mM in CD3OD): 26.0 ± 0.4 s
- polarization build-up Tb ([1]; 30 mM in CD3OD): 13.7 ± 0.6 s
- 13C T1 relaxation time ([1]; 30 mM in CD3OD, 1.4 T): 86 ± 2 s
- 13C T1 decay ([1]; 30 mM in CH3OH): 29.1 ± 0.8 s
- polarization build-up Tb ([1]; 30 mM in CH3OH): 19.3 ± 0.6 s
- 13C T1 relaxation time ([1]; 30 mM in CH3OH, 1.4 T): 59.3 ± 0.8 s
- T1 relaxation time ([1]; 60 mM in CH3OH, 1.4 T): 59.3 ± 0.5 s
- T1 relaxation time ([1]; 60 mM in CH3OH, 300 nT): 34.6 ± 1.1 s
- polarization build-up time constant Tb ([1]; 60 mM in CH3OH, 300 nT): 22.0 ± 0.7 s
- 1-13C T1 ([1]; dissolved in CH3OH:catalyst mixture, Earth's field): 46.5 ± 0.9 s
- T1 in the aqueous phase after Re-D SABRE ([2]; D2O, 1.4 T): 102 ± 1.3 s
- 13C T1 in the EtAc fraction ([2]; Earth's field, estimated): < 1.3 s
- T1 in the aqueous phase after Re-D SABRE ([2]; H2O, 1.4 T): 41.6 ± 0.3 s
- apparent 13C T1, entire pyruvate (precipitated and dissolved) pool ([2]; precipitated sample, 1.4 T, detected after dissolution with D2O): 5.3 ± 0.2 s
- apparent 13C T1, residual dissolved-phase pyruvate ([2]; precipitated sample, 1.4 T, detected immediately, mono-exponential): 7.0 ± 0.4 s
- HP 13C signal after precipitation and filtering [3]: no HP ^13C signal was observed
- P13C in the free state [4]: 13%
